The NIST ThermoML archive (doi:10.1016/j.jct.2019.04.010)
± gives the expanded uncertainty stated by the source.

Legend:
[1] = 100 kPa, Liquid; for viscosity: Concentric cylinders viscometry; for mass density: Vibrating tube method
[2] = xn = mol fraction of the nth substance listed; conditions: 100 kPa, Liquid, x2 = 0; for viscosity: Concentric cylinders viscometry; for mass density: Vibrating tube method

CCCCn1cc[n+](C)c1.O=[N+]([O-])[O-] [1-butyl-3-methylimidazolium nitrate]
[1]
Conditions	mass density [kg/m3]	viscosity [mPa·s]
293.15 K	1158.3 ± 1.5	223.54 ± 45
298.15 K	1155.2 ± 1.5	168.97 ± 34
303.15 K	1152.3 ± 1.5	125.36 ± 25
308.15 K	1149.3 ± 1.5	96.74 ± 19
313.15 K	1146.5 ± 1.5	75.12 ± 15
318.15 K	1143.8 ± 1.4	56.28 ± 11
323.15 K	1141.2 ± 1.4	45.17 ± 9.1

CCC(C)O (stereo unspecified) [butan-2-ol] + CCCCn1cc[n+](C)c1.O=[N+]([O-])[O-]
[2]
Conditions	mass density [kg/m3]	viscosity [mPa·s]
293.15 K	806.7 ± 1	3.67 ± 0.73
298.15 K	802.7 ± 1	3.04 ± 0.61
303.15 K	798.4 ± 1	2.54 ± 0.51
308.15 K	794.1 ± 1	2.13 ± 0.43
313.15 K	789.8 ± 1	1.8 ± 0.36
318.15 K	785.2 ± 1	1.54 ± 0.31
323.15 K	780.6 ± 1	1.33 ± 0.27

CCCC(C)O (stereo unspecified) [pentan-2-ol] + CCCCn1cc[n+](C)c1.O=[N+]([O-])[O-]
[2]
Conditions	mass density [kg/m3]	viscosity [mPa·s]
293.15 K	809.3 ± 1	3.97 ± 0.79
298.15 K	805.3 ± 1	3.32 ± 0.66
303.15 K	801.2 ± 1	2.81 ± 0.56
308.15 K	797 ± 1	2.37 ± 0.47
313.15 K	792.7 ± 1	1.99 ± 0.4
318.15 K	788.4 ± 1	1.66 ± 0.33
323.15 K	784 ± 1	1.39 ± 0.28

CC(C)O [propan-2-ol] + CCCCn1cc[n+](C)c1.O=[N+]([O-])[O-]
[2]
Conditions	mass density [kg/m3]	viscosity [mPa·s]
293.15 K	785.4 ± 1	2.42 ± 0.48
298.15 K	781.1 ± 1	2.08 ± 0.42
303.15 K	776.8 ± 1	1.8 ± 0.36
308.15 K	772.4 ± 1	1.56 ± 0.31
313.15 K	768 ± 1	1.36 ± 0.27
318.15 K	763.4 ± 1	1.19 ± 0.24
323.15 K	758.8 ± 1	1.05 ± 0.21
